Measurements taken from patent US6919378B2, “Pharmaceutical solutions of modafinil compounds” (Cephalon, Inc., priority 2000, dated 2005).
Values after ≈ are worked out from the molar mass of the structure shown.

Experiments:
[1] = Solubility of modafinil in solvent composition, measured by HPLC; type: physicochemical; conditions: PEG-400:benzyl alcohol 95:5 (v/v) solvent mixture, organic solvent or mixture, thermodynamic from solid, in 95:5 (v/v) PEG-400:benzyl alcohol, cooled to room temperature, filtered
Procedure: The following HPLC method may be used to measure the modafinil compound content in the compositions. Filter a solution saturated with a modafinil compound through a 1.2 μm syringe filter. Dilute 10 μL of the clear solution to 1 mL with 990 μL of dimethylsulfoxide (Fischer Certified ACS grade). Take 10 μL of the diluted solution for the HPLC analysis, with the following representative column conditions: • Flow rate: 1.2 mL/min. • Column: ODS, 4.6×20 mm, Column Temp: 30° C. • Mobil phase: 80% (65% Acetonitrile/35% 1M phosphate buffer) • 20% water • Analysis time: 5 minutes • Wavelength: 222 nanometers
Concentration can be calculated by comparison to area from a modafinil compound standard used at 0.4 mg/mL with appropriate dilution.
A mixture of 95 mL of PEG-400 and 5 ml of benzyl alcohol was stirred at room temperature until homogeneous. To a separate container, 0.1 gram of modafinil was weighed and 1 mL of the mixed solvent was added with stirring and heating to 55-60° C. The solution was allowed to cool to room temperature and any undissolved solid was removed by filtering the solution. In the case of a viscous solution or a solution that solidifies at room temperature, warming until a freely flowing solution was obtained and then filtration gave a solution free of particulate matter.

mice = conditions: single administration; cited from earlier work
[2] = Water and lipid solubility (observation)
monkeys = conditions: single administration; cited from earlier work

In the case of `NC(=O)C[S+]([O-])C(c1ccccc1)c1ccccc1` (centres unmarked) [modafinil, 2-(benzhydryl-sulfinyl)acetamide], the solubility [1] is given as 61 mg/mL (≈ 223 mM), the locomotor activity (mice) is given as “increased locomotor activity” and the lipid solubility [2] is given as “very poor”. The water solubility [2] was “very poor” and the nocturnal activity (monkeys) was “increased nocturnal activity”.
